Literature values as cited in patent US12455270B2, “Mesh for dissolution test” (Shionogi & Co., Ltd., priority 2019, dated 2025).

How the values were obtained:
[1] = input parameter of GastroPlus simulation
[2] = input parameter of GastroPlus simulation; remark: listed apart in the source

| logP [1] | CL [2] | Plasma Fup [2] | Vc [2] | k12 [2] | k21 [2] | Compound |
| --- | --- | --- | --- | --- | --- | --- |
| 4.21 | 28.558 L/h | 2.1% | 1.0902 L/kg | 0.1955 h⁻¹ | 0.07268 h⁻¹ | Cc1ccc(-c2cc(C(F)(F)F)nn2-c2ccc(S(N)(=O)=O)cc2)cc1 [Celecoxib] |
| 1.8 | 0.9087 L/h | 28.8% | 0.6971 L/kg | 0.165 h⁻¹ | – | NC(=O)N1c2ccccc2C=Cc2ccccc21 [Carbamazepine] |
